ChEMBL document CHEMBL1159340, “Antibacterial diterpenes from Calceolaria pinifolia” (J Nat Prod, 2003)
Values after ≈ are worked out from the molar mass of the structure shown.

How the values were obtained:
Bacillus subtilis [1] = experiment: Inhibition of DNA synthesis in Bacillus subtilis assessed as [3H]thymidine uptake at 8 ug/mL by LKB Betaplate scintillation counter relative to control; format: functional; design: scale not given: the % may be the effect or the level left
Bacillus subtilis [2] = experiment: Inhibition of RNA synthesis in Bacillus subtilis assessed as incorporation of [3H]uridine at 4 ug/mL by LKB Betaplate scintillation counter relative to control; format: functional; design: scale not given: the % may be the effect or the level left
Bacillus subtilis [3] = experiment: Antimicrobial activity against Bacillus subtilis 327 after 18 hrs by microbroth dilution method; format: functional
Staphylococcus aureus [4] = experiment: Antimicrobial activity against methicillin-susceptible Staphylococcus aureus 375 after 18 hrs by microbroth dilution method; format: functional
Staphylococcus aureus [5] = experiment: Antimicrobial activity against methicillin-resistant Staphylococcus aureus 310 after 18 hrs by microbroth dilution method; format: functional
Escherichia coli = experiment: Antimicrobial activity against Escherichia coli imp 389 after 18 hrs by microbroth dilution method; format: functional
Bacillus subtilis [6] = experiment: Inhibition of protein synthesis in Bacillus subtilis assessed as [3H]amino acid uptake at 4 ug/mL by LKB Betaplate scintillation counter relative to control; format: functional; design: scale not given: the % may be the effect or the level left
Bacillus subtilis [7] = experiment: Inhibition of protein synthesis in Bacillus subtilis assessed as incorporation of [3H]amino acid at 4 ug/mL by LKB Betaplate scintillation counter relative to control; format: functional; design: scale not given: the % may be the effect or the level left
Bacillus subtilis [8] = experiment: Inhibition of DNA synthesis in Bacillus subtilis assessed as [3H]thymidine uptake at 2 ug/mL by LKB Betaplate scintillation counter relative to control; format: functional; design: scale not given: the % may be the effect or the level left
Bacillus subtilis [9] = experiment: Inhibition of DNA synthesis in Bacillus subtilis assessed as incorporation of [3H]thymidine at 2 ug/mL by LKB Betaplate scintillation counter relative to control; format: functional; design: scale not given: the % may be the effect or the level left
Staphylococcus aureus [10] = experiment: Antimicrobial activity against Staphylococcus aureus infected in CD1 mouse administered subcutaneously after 30 mins infection measured after 7 days; format: functional; conditions: sc
Bacillus subtilis [11] = experiment: Inhibition of RNA synthesis in Bacillus subtilis assessed as [3H]uridine uptake at 2 ug/mL by LKB Betaplate scintillation counter relative to control; format: functional; design: scale not given: the % may be the effect or the level left
Bacillus subtilis [12] = experiment: Inhibition of RNA synthesis in Bacillus subtilis assessed as incorporation of [3H]uridine at 2 ug/mL by LKB Betaplate scintillation counter relative to control; format: functional; design: scale not given: the % may be the effect or the level left
Bacillus subtilis [13] = experiment: Inhibition of protein synthesis in Bacillus subtilis assessed as [3H]amino acid uptake at 2 ug/mL by LKB Betaplate scintillation counter relative to control; format: functional; design: scale not given: the % may be the effect or the level left
Bacillus subtilis [14] = experiment: Inhibition of protein synthesis in Bacillus subtilis assessed as incorporation of [3H]amino acid at 2 ug/mL by LKB Betaplate scintillation counter relative to control; format: functional; design: scale not given: the % may be the effect or the level left
Bacillus subtilis [15] = experiment: Inhibition of DNA synthesis in Bacillus subtilis assessed as [3H]thymidine uptake at 1 ug/mL by LKB Betaplate scintillation counter relative to control; format: functional; design: scale not given: the % may be the effect or the level left
Bacillus subtilis [16] = experiment: Inhibition of DNA synthesis in Bacillus subtilis assessed as incorporation of [3H]thymidine at 1 ug/mL by LKB Betaplate scintillation counter relative to control; format: functional; design: scale not given: the % may be the effect or the level left
Bacillus subtilis [17] = experiment: Inhibition of RNA synthesis in Bacillus subtilis assessed as [3H]uridine uptake at 1 ug/mL by LKB Betaplate scintillation counter relative to control; format: functional; design: scale not given: the % may be the effect or the level left
Bacillus subtilis [18] = experiment: Inhibition of RNA synthesis in Bacillus subtilis assessed as incorporation of [3H]uridine at 1 ug/mL by LKB Betaplate scintillation counter relative to control; format: functional; design: scale not given: the % may be the effect or the level left
Bacillus subtilis [19] = experiment: Inhibition of protein synthesis in Bacillus subtilis assessed as [3H]amino acid uptake at 1 ug/mL by LKB Betaplate scintillation counter relative to control; format: functional; design: scale not given: the % may be the effect or the level left
Bacillus subtilis [20] = experiment: Inhibition of protein synthesis in Bacillus subtilis assessed as incorporation of [3H]amino acid at 1 ug/mL by LKB Betaplate scintillation counter relative to control; format: functional; design: scale not given: the % may be the effect or the level left
[21] = Toxicity in human RBC assessed as hemolysis at 128 ug/ml after 2 hrs; format: cell-based, Erythrocyte; conditions: red blood cells (RBC), read-out: Activity
[22] = Toxicity in human RBC assessed as hemolysis at 64 ug/ml after 2 hrs; format: cell-based, Erythrocyte; conditions: red blood cells (RBC), read-out: Activity
[23] = Toxicity in human RBC assessed as hemolysis at 32 ug/ml after 2 hrs; format: cell-based, Erythrocyte; conditions: red blood cells (RBC), read-out: Activity
[24] = Toxicity in human RBC assessed as hemolysis at 16 ug/ml after 2 hrs; format: cell-based, Erythrocyte; conditions: red blood cells (RBC), read-out: Activity
[25] = Toxicity in human RBC assessed as hemolysis at 8 ug/ml after 2 hrs; format: cell-based, Erythrocyte; conditions: red blood cells (RBC), read-out: Activity
[26] = Toxicity in human RBC assessed as hemolysis at 4 ug/ml after 2 hrs; format: cell-based, Erythrocyte; conditions: red blood cells (RBC), read-out: Activity
[27] = Toxicity in human RBC assessed as hemolysis at 2 ug/ml after 2 hrs; format: cell-based, Erythrocyte; conditions: red blood cells (RBC), read-out: Activity
[28] = Toxicity in human RBC assessed as hemolysis at 1 ug/ml after 2 hrs; format: cell-based, Erythrocyte; conditions: red blood cells (RBC), read-out: Activity
[29] = Toxicity in human RBC assessed as hemolysis at 0.5 ug/ml after 2 hrs; format: cell-based, Erythrocyte; conditions: red blood cells (RBC), read-out: Activity
Bacillus subtilis [30] = experiment: Inhibition of RNA synthesis in Bacillus subtilis assessed as [3H]uridine uptake at 4 ug/mL by LKB Betaplate scintillation counter relative to control; format: functional; design: scale not given: the % may be the effect or the level left
Bacillus subtilis [31] = experiment: Inhibition of DNA synthesis in Bacillus subtilis assessed as incorporation of [3H]thymidine at 4 ug/mL by LKB Betaplate scintillation counter relative to control; format: functional; design: scale not given: the % may be the effect or the level left
Bacillus subtilis [32] = experiment: Inhibition of DNA synthesis in Bacillus subtilis assessed as [3H]thymidine uptake at 4 ug/mL by LKB Betaplate scintillation counter relative to control; format: functional; design: scale not given: the % may be the effect or the level left
Bacillus subtilis [33] = experiment: Inhibition of protein synthesis in Bacillus subtilis assessed as incorporation of [3H]amino acid at 8 ug/mL by LKB Betaplate scintillation counter relative to control; format: functional; design: scale not given: the % may be the effect or the level left
Bacillus subtilis [34] = experiment: Inhibition of protein synthesis in Bacillus subtilis assessed as [3H]amino acid uptake at 8 ug/mL by LKB Betaplate scintillation counter relative to control; format: functional; design: scale not given: the % may be the effect or the level left
Bacillus subtilis [35] = experiment: Inhibition of RNA synthesis in Bacillus subtilis assessed as incorporation of [3H]uridine at 8 ug/mL by LKB Betaplate scintillation counter relative to control; format: functional; design: scale not given: the % may be the effect or the level left
Bacillus subtilis [36] = experiment: Inhibition of RNA synthesis in Bacillus subtilis assessed as [3H]uridine uptake at 8 ug/mL by LKB Betaplate scintillation counter relative to control; format: functional; design: scale not given: the % may be the effect or the level left
Bacillus subtilis [37] = experiment: Inhibition of DNA synthesis in Bacillus subtilis assessed as incorporation of [3H]thymidine at 8 ug/mL by LKB Betaplate scintillation counter relative to control; format: functional; design: scale not given: the % may be the effect or the level left
Bacillus subtilis [38] = experiment: Inhibition of DNA synthesis in Bacillus subtilis assessed as [3H]thymidine uptake at 0.25 ug/mL by LKB Betaplate scintillation counter relative to control; format: functional; design: scale not given: the % may be the effect or the level left
Bacillus subtilis [39] = experiment: Inhibition of DNA synthesis in Bacillus subtilis assessed as incorporation of [3H]thymidine at 0.25 ug/mL by LKB Betaplate scintillation counter relative to control; format: functional; design: scale not given: the % may be the effect or the level left
Bacillus subtilis [40] = experiment: Inhibition of RNA synthesis in Bacillus subtilis assessed as [3H]uridine uptake at 0.25 ug/mL by LKB Betaplate scintillation counter relative to control; format: functional; design: scale not given: the % may be the effect or the level left
Bacillus subtilis [41] = experiment: Inhibition of RNA synthesis in Bacillus subtilis assessed as incorporation of [3H]uridine at 0.25 ug/mL by LKB Betaplate scintillation counter relative to control; format: functional; design: scale not given: the % may be the effect or the level left
Bacillus subtilis [42] = experiment: Inhibition of protein synthesis in Bacillus subtilis assessed as [3H]amino acid uptake at 0.25 ug/mL by LKB Betaplate scintillation counter relative to control; format: functional; design: scale not given: the % may be the effect or the level left
Bacillus subtilis [43] = experiment: Inhibition of protein synthesis in Bacillus subtilis assessed as incorporation of [3H]amino acid at 0.25 ug/mL by LKB Betaplate scintillation counter relative to control; format: functional; design: scale not given: the % may be the effect or the level left
[44] = Ratio of LD50 for CD1 mouse to ED50 for Staphylococcus aureus

SMILES: C=C[C@]1(C)CC=C2C(CC[C@@H]3[C@](C)(CO)CCC[C@@]23C)C1 (some centres not stated)
- Activity (Bacillus subtilis [1]): 1%
- Activity (Bacillus subtilis [2]): 0%
- MIC (Bacillus subtilis [3]): 4 µg/mL (≈ 13.9 µM)
- MIC (Staphylococcus aureus [4]): 2 µg/mL (≈ 6.93 µM)
- MIC (Staphylococcus aureus [5]): 2 µg/mL (≈ 6.93 µM)
- MIC (Escherichia coli): > 128 µg/mL
- Activity (Bacillus subtilis [6]): 1%
- Activity (Bacillus subtilis [7]): 2%
- Activity (Bacillus subtilis [8]): 2%
- Activity (Bacillus subtilis [9]): 2%
- ED50 (Staphylococcus aureus [10]): > 64 mg/kg
- Activity (Bacillus subtilis [11]): 1%
- Activity (Bacillus subtilis [12]): 1%
- Activity (Bacillus subtilis [13]): 1%
- Activity (Bacillus subtilis [14]): 4%
- Activity (Bacillus subtilis [15]): 13%
- Activity (Bacillus subtilis [16]): 20%
- Activity (Bacillus subtilis [17]): 1%
- Activity (Bacillus subtilis [18]): 2%
- Activity (Bacillus subtilis [19]): 2%
- Activity (Bacillus subtilis [20]): 36%
- hemolysis at 2 h, 128 ug/ml [21]: 88.1%
- hemolysis at 2 h, 64 ug/ml [22]: 80.2%
- hemolysis at 2 h, 32 ug/ml [23]: 71.7%
- hemolysis at 2 h, 16 ug/ml [24]: 14.8%
- hemolysis at 2 h, 8 ug/ml [25]: 3.32%
- hemolysis at 2 h, 4 ug/ml [26]: 0.3%
- hemolysis at 2 h, 2 ug/ml [27]: 0.45%
- hemolysis at 2 h, 1 ug/ml [28]: 0.08%
- hemolysis at 2 h, 0.5 ug/ml [29]: 0.3%
- Activity (Bacillus subtilis [30]): 0%
- Activity (Bacillus subtilis [31]): 1%
- Activity (Bacillus subtilis [32]): 1%
- Activity (Bacillus subtilis [33]): 2%
- Activity (Bacillus subtilis [34]): 1%
- Activity (Bacillus subtilis [35]): 0%
- Activity (Bacillus subtilis [36]): 0%
- Activity (Bacillus subtilis [37]): 1%

SMILES: O=C(O)c1cn(C2CC2)c2cc(N3CCNCC3)c(F)cc2c1=O [CIPROFLOXACIN]
- Activity (Bacillus subtilis [38]): 73%
- Activity (Bacillus subtilis [39]): 61%
- Activity (Bacillus subtilis [40]): 100%
- Activity (Bacillus subtilis [41]): 94%
- Activity (Bacillus subtilis [42]): 104%
- Activity (Bacillus subtilis [43]): 94%

SMILES: CC(C)c1ccc2c(c1)CC[C@H]1[C@](C)(C(=O)O)CCC[C@]21C [DEHYDROABIETIC ACID]
- MIC (Bacillus subtilis [3]): 32 µg/mL (≈ 107 µM)
- MIC (Staphylococcus aureus [4]): 16 µg/mL (≈ 53.3 µM)
- MIC (Staphylococcus aureus [5]): 32 µg/mL (≈ 107 µM)
- MIC (Escherichia coli): 128 µg/mL (≈ 426 µM)

SMILES: CN[C@H](CC(C)C)C(=O)N[C@H]1C(=O)N[C@@H](CC(N)=O)C(=O)N[C@H]2C(=O)N[C@H]3C(=O)N[C@H](C(=O)N[C@H](C(=O)O)c4cc(O)cc(O)c4-c4cc3ccc4O)[C@H](O)c3ccc(c(Cl)c3)Oc3cc2cc(c3O[C@@H]2O[C@H](CO)[C@@H](O)[C@H](O)[C@H]2O[C@H]2C[C@](C)(N)[C@H](O)[C@H](C)O2)Oc2ccc(cc2Cl)[C@H]1O [VANCOMYCIN]
- ED50 (Staphylococcus aureus [10]): 1 mg/kg
- Ratio LD50/ED50 [44]: > 1024

SMILES: C[C@H]1[C@H](C)CC[C@]2(C(=O)O)CC[C@]3(C)C(=CC[C@@H]4[C@@]5(C)CC[C@@H](O)C(C)(C)[C@@H]5CC[C@]43C)[C@H]12
- MIC (Bacillus subtilis [3]): 64 µg/mL (≈ 140 µM)
- MIC (Staphylococcus aureus [4]): > 128 µg/mL
- MIC (Escherichia coli): > 128 µg/mL

SMILES: C=C[C@]1(C)CC=C2C(CC[C@@H]3[C@](C)(C(=O)O)CCC[C@@]23C)C1 (some centres not stated)
- MIC (Bacillus subtilis [3]): 32 µg/mL (≈ 106 µM)
- MIC (Staphylococcus aureus [4]): 16 µg/mL (≈ 52.9 µM)
- MIC (Staphylococcus aureus [5]): 32 µg/mL (≈ 106 µM)
- MIC (Escherichia coli): > 128 µg/mL
